Reference: patent US20080312201A1, “Reduced Toxicity Methotrexate Formulations and Methods for Using the Same” (priority 2004, published 2008)

Legend:
Ovarian cancer cell = experiment: Human cancer cell assessment; format: cell-based
From the text: As a quick secondary screen, the additive alone and in combination with the target drug was examined in these human cancer cell lines. The results of TK-336 are shown as a specific example. The compound alone when treated over a wide concentration range had no effects against the cancer cells.

mice = experiment: Mouse testing: toxic side effects of MTX, liver examination; format: in vivo; conditions: after two weeks of treatment every other day
Description: (§1) The primary aspect is testing in mice for the ability to translate the toxic reducing action of the additive from flies into mice. Methotrexate was administered at a more moderate dose level, repeatedly over a long period of time. All additives tested for reducing the toxic side effects of MTX in mice were successful. That is 100% of the compounds identified in flies as toxic reducing compounds translated this activity into mice, for both chronic and acute applications. One of the signs of chronic liver damage by methotrexate is metabolic weight gain. The treatments were done on older juvenile mice (cohort of six). There weight gain was followed for two weeks with treatments given every other day.
At the end of the experiment, livers were examined.

fruit flies = experiment: Lethal dose (LD) curve in fruit flies; format: in vivo, Drosophila; conditions: chemical mixed into food and water, 50 wild-type embryos; range tested 0.01 mM to 5 mM
Description: The LD curve in fruit flies was generated for methotrexate. The data to generate the curve was obtained by: Mixing a specific concentration of chemical into the food and water supply of the fruit flies, then 50 wild-type embryos are added to the assay. The LD value for this concentration was calculated by 100−(2×(number of alive flies)). The LD curve was generated by repeating this method over a concentration range. For example, the concentration range tested for methotrexate was 0.01 mM to 5 mM. The LD 98 was identified for methotrexate was 0.5 mM. The LD98 was used as a stringent level for identifying additive chemicals that reduce the toxicity. This stringent level of toxicity is key for several reasons: 1) The high toxicity dose turns even mild toxic side effects into significant barriers for the flies to survive. At the LD98 concentration of methotrexate, all of the toxic mechanisms are orders of magnitude above that observed at physiological treatment doses. At the LD98 dose, suppressing any one toxicity side effect will not enable significant survival of the flies. An additive that enables significant survival is more likely able to reduce all toxic side effects of methotrexate.

[1] = Mouse testing: weight gain under repeated methotrexate; format: in vivo; conditions: older juvenile mice, cohort of six; for weight: treatments every other day
Description: as §1

With `CN(Cc1cnc2nc(N)nc(N)c2n1)c1ccc(C(=O)N[C@@H](CCC(=O)O)C(=O)O)cc1` [MTX] the Cell survival (Ovarian cancer cell; 15 μg/ml) was 50%, the Cell survival (Ovarian cancer cell; 30 μg/ml) was 5% and the “appearance of the livers at the end of the experiment” value (mice) was “smaller, yellow/orange in color and had almost no veins in the organ”. For the same compound, the “vein density in the liver” value (mice) was 5 % of the normal density, the LD98 (fruit flies) was 0.5 mM and the weight ([1]; Day 0) was 107. For the same compound, the weight ([1]; Day 7) was 107, the weight ([1]; Day 14) was 110 and the weight gain/week ([1]; over two weeks) was about 1 % weight gain/week.
